In article PMC4204995, “Inhibition of Influenza Virus Replication by Targeting Broad Host Cell Pathways” (PLoS ONE, 2014):
Several values for one entry are separate records, joined by “and”; a condition that tells them apart may be missing. Equal values may be shown once. Where a name gives a salt, the structure may show the parent alone. Read-outs that look alike come from different tables or passages of the source.

Legend:
[1] = test system: A/Puerto Rico/8/34 (H1N1); assay: microbe, parasite or virus in culture; assay type: cell-based, influenza A virus; details: for EC50: read-out: EC50 values, A/Puerto Rico/8/34 (H1N1)
A/Hong Kong/X31 (H3N2) = assay: microbe, parasite or virus in culture; assay type: cell-based, influenza A virus; details: read-out: EC50 values, A/Hong Kong/X31 (H3N2)
PR8 virus = assay type: cell-based, influenza A virus
in vitro = details: dog
[2] = test system: A/California-like/2009 (H1N1); assay: microbe, parasite or virus in culture; assay type: cell-based, influenza A virus
[3] = test system: viral acidic polymerase (PA) expression, PR8 virus; assay type: cell-based, influenza A virus
[4] = XTT cytotoxicity assay in MDCK cells; details: dog
PR8 influenza virus = assay type: cell-based, influenza A virus
[5] = test system: A/Puerto Rico/8/34 (H1N1); assay: microbe, parasite or virus in culture; assay type: cell-based; details: Influenza A virus, H1N1 / PR8, Calu-3, 48 h, read-out: EC50 values
[6] = test system: A/Swine/OTH-33-2/2009 (H1N1); assay type: cell-based, influenza A virus
[7] = XTT cytotoxic assay in Calu-3 cells; assay type: cell-based; details: human
MDCK cells [8] = assay: XTT cytotoxicity assay in MDCK cells; details: MDCK cells; for CC50: XTT cell viability, 2 days
MDCK cells [9] = test system: MDCK cells
[10] = Influenza A virus, H1N1, MDCK, 48 h
[11] = Influenza A virus, H3N2, MDCK, 48 h
[12] = Influenza A virus, H1N1, MDCK, 48 h, read-out: EC50 values, A/California-like/2009 (H1N1)
[13] = read-out: EC50 values, A/California-like/2009 (H1N1)

SMILES | EC50 [1, 10] | EC50 (A/Hong Kong/X31 (H3N2); [11]) | EC50 [2, 12] | effect on viral replication (PR8 virus) | decrease of PA expression [3] | CC50 (in vitro) | further results
CN(C)c1nc(N)c(C(=O)NC(=N)N)nc1Cl [5-(N,N-Dimethyl)amiloride hydrochloride, 5-(N,N-Dimethyl) amiloride hydrochloride] | 31.1 ± 7.72 µM | 20.4 ± 8.62 µM | 63.5 ± 5.77 µM |  |  |  | inhibition of viral replication (PR8 virus): 80%; CC50 at 2 days (in vitro): 175 ± 10.2 µM; effect on PA gene expression [3]: almost completely abolished
CNc1ccc2oc(C[C@H]3O[C@@]4(CC[C@H]3C)O[C@H]([C@H](C)C(=O)c3ccc[nH]3)[C@H](C)C[C@H]4C)nc2c1C(=O)O [A23187 (calcimycin), calcimycin (A23187)] | 0.08 ± 0.01 µM | 0.08 ± 0.01 µM | 0.22 ± 0.01 µM | completely inhibit viral replication | 42% |  | CC50 at 2 days [4]: 0.413 ± 0.21 µM
CCN(CC)Cc1cc(Nc2ccnc3cc(Cl)ccc23)ccc1O [Amodiaquine, amodiaquin dihydrochloride dihydrate] | 2.76 ± 0.95 µM | 2.63 ± 0.9 µM | 1.48 ± 0.92 µM | abrogate viral replication | 82% | 26.2 ± 8.43 µM | effect on viral replication in growth kinetics assays (PR8 influenza virus): inhibited viral replication; EC50 [5]: 1.25 to 2.5 µM; inhibition of replication [6]: more than 60%; reduction of PR8 replication [1]: ~26%; CC50 [7]: 53.6 ± 8.8 µM
CO/C1=C\C(C)=C\[C@@H](C)[C@@H](O)[C@@H](C)C/C(C)=C/C=C/[C@H](OC)[C@@H]([C@@H](C)[C@@H](O)[C@H](C)[C@@]2(O)C[C@@H](O)[C@H](C)[C@@H](C(C)C)O2)OC1=O [Bafilomycin A, bafilomycin A] |  |  |  |  | more than 90% |  | CC50 (MDCK cells [8]; footnote c: [ ] in nM): 16.8 ± 9.02 nM; EC50 [1]: 0.004 µM; EC50 ([2]; read-out: EC50 values, A/California-like/2009 (H1N1), result as symbol): < 0.004 µM
COc1cc(CNC(=O)CCCC/C=C/C(C)C)ccc1O [Capsaicin, capsaicin] | 58.8 ± 8.32 µM | 55.2 ± 7.2 µM | 44.7 ± 8.15 µM |  | approximately 48% |  | toxicity (MDCK cells [8]; at 100 µM): no significant toxicity; cell death (MDCK cells [8]; at 200 µM): 50%; CC50 at 2 days [4]: 157 ± 9.63 µM
CCN(CC)CCCC(C)Nc1ccnc2cc(Cl)ccc12 (stereo not shown) [Chloroquine, chloroquine diphosphate salt] | 0.61 ± 0.91 µM | 4.31 ± 0.96 µM | 4.01 ± 0.8 µM | abrogate viral replication |  |  | inhibition of replication [6]: more than 60%
OC(c1cc(C(F)(F)F)nc2c(C(F)(F)F)cccc12)C1CCCCN1 (stereo not shown) [Mefloquine, mefloquine hydrochloride] | 5.13 ± 0.87 µM | 6.66 ± 0.75 µM |  |  | 82% | 22.9 ± 1.3 µM | EC50 ([2]; Influenza A virus, H1N1, MDCK, read-out: EC50 values, A/California-like/2009 (H1N1), result as symbol): > 22.9 µM
CCC(CC)O[C@@H]1C=C(C(=O)O)C[C@H](N)[C@H]1NC(C)=O [Oseltamivir carboxylate] |  |  |  |  |  |  | reduction of PR8 replication [1]: approximately 30%; EC50 [1]: 0.05 µM and 0.0499 µM; EC50 (A/Hong Kong/X31 (H3N2)): 0.00074 ± 8e-05 µM; EC50 (PR8 virus): 0.313 µM; CC50 (MDCK cells [9]): > 1000 µM; EC50 [2, 13]: 0.103 ± 0.0321 µM
COc1cc(NC(C)CCCN)c2ncccc2c1 (stereo not shown) [Primaquine, primaquine diphosphate] | 8.58 ± 0.89 µM | 29.5 ± 9.42 µM | 28.6 ± 9.45 µM |  | 62% |  | inhibition of replication [6]: less than 20%
CCN(CC)CCCC(C)Nc1c2ccc(Cl)cc2nc2ccc(OC)cc12 (stereo not shown) [Quinacrine, quinacrine dihydrochloride] | 2.96 ± 0.87 µM | 5.97 ± 0.91 µM | 1.88 ± 0.87 µM |  | more than 90% | 14.6 ± 8.51 µM | inhibition of replication [6]: more than 60%; toxicity (MDCK cells [9]): no toxicity; cell death (MDCK cells [9]; dog): 10%
C=C[C@H]1C[N@@]2CC[C@H]1C[C@@H]2[C@@H](O)c1ccnc2ccc(OC)cc12 [Quinidine, quinidine anhydrous] | 16.2 ± 8.9 µM | 19.8 ± 8.83 µM | 5.11 ± 0.76 µM |  | more than 90% | 167 ± 94.2 µM | dose range at which IAV replication is inhibited [1]: ≥ 16.2 µM
C=C[C@H]1C[N@@]2CC[C@H]1C[C@H]2[C@H](O)c1ccnc2ccc(OC)cc12 [Quinine, Quinine sulfate] | 9.1 ± 0.89 µM | 17.1 ± 8.7 µM | 12.2 ± 8.49 µM | abrogate viral replication | more than 90% | 409 ± 82.2 µM | concentration needed to abrogate viral replication [1]: 50 µM; concentration needed to abrogate viral replication (PR8 virus): 60 µM
CCN(CC)CCCCCCCCOC(=O)c1cc(OC)c(OC)c(OC)c1.Cl [TMB-8, TMB-8 hydrochloride] |  |  |  | completely inhibit viral replication |  |  | CC50 (MDCK cells [8]): 52300 ± 8380 nM; inhibition of PR8 replication ([1]; 10 µM): 90%; EC50 [1]: 2.5 ± 0.91 µM; EC50 (A/Hong Kong/X31 (H3N2)): 21.7 ± 9.31 µM; cell death (MDCK cells [9]): 25%; toxicity (MDCK cells [9]): no significant toxicity; EC50 [2, 13]: 12.7 ± 8.65 µM; effect on PA gene expression [3]: almost completely abolished
COc1ccc(CCN(C)CCCC(C#N)(c2ccc(OC)c(OC)c2)C(C)C)cc1OC (stereo not shown) [Verapamil, verapamil hydrochoride] |  | 19.6 ± 8.75 µM |  |  |  |  | EC50 [5]: 1.25 to 2.5 µM
